Measurements published in paper PMC7460390, “Secondary Metabolites with Nitric Oxide Inhibition from Marine-Derived Fungus Alternaria sp. 5102” (Marine Drugs, 2020).
Like-named read-outs stand apart in the source and are kept apart here.

Columns and labels:
[1] = tested on: NO production in RAW264.7 cells activated by lipopolysaccharide; test: Inhibition of NO production in LPS-activated RAW264.7 cells (Griess assay); type: cell-based, murine; settings: for SI, selectivity index, calculated by CC50/IC50: CC50 (MTT) / IC50 (NO production); for IC50: read-out: IC50, inhibition of LPS-induced NO production
Procedure: After pre-incubation of RAW 264.7 cells (1.5 × 10^5 cells/mL) with LPS (1 µg/mL) and samples at 37 °C for 24 h, the quantity of nitrite accumulated in the culture medium was measured as an indicator of NO production. Briefly, 50 µL of cell culture medium were mixed with 100 µL Griess reagent, and incubated at room temperature for 10 min. The absorbance was determined at 540 nm wavelength with a microplate reader (Multiskan GO, Thermo Scientific, Waltham, MA, USA).

[2] = Cell viability, MTT assay, with LPS treatment; type: cell-based, murine; settings: mouse, RAW 264.7 cells, MTT, LPS 1 µg/mL, 24 h, mean ± SD, n = 3
Procedure: (§1) In this work, all isolated compounds (1–22) were evaluated for their inhibition of nitric oxide (NO) production in RAW264.7 cells activated by lipopolysaccharide (LPS) using the Griess assay with indomethacin as a positive control (Table 3). […] To investigate whether the inhibitory activities of the active compounds were due to their cytotoxicity, the effects of the tested compounds on cell proliferation/viability were evaluated using the MTT method. […] Therefore, further studies are required to clarify the underlying mechanism of the active compounds.
(§2) Cell viability was measured using the conventional MTT assay. RAW 264.7 cells were seeded in 96-well plates at a density of 1.5 × 10^5 cells/mL. After 12 h, the cells were treated with LPS (1 µg/mL) and samples, followed by additional incubation for 24 h at 37 °C. MTT stock solution (2 mg/mL) was added to wells for a total reaction volume of 110 µL. After 4 h incubation, the supernatants were aspirated. The formazan crystals in each well were dissolved in 50 µL of DMSO, and the absorbance was measured using a microplate reader (Multiskan GO, Thermo Scientific, Waltham, MA, USA) at the wavelength of 490 nm. Relative cell viability was evaluated based on the quantity of MTT converted to the insoluble formazan salt. The optical density of formazan generated in the control cells represented 100% viability. The data were expressed as mean percentages of the viable cells compared to the respective control.

RAW 264.7 cells = test: Cell viability, MTT assay, with LPS treatment; type: cell-based, murine; settings: up to 100 μM, with LPS treatment for 24 h
Procedure: as §1, §2

[3] = tested on: RTX-induced mouse ear edema; parameters: method as in PMID 10840958; settings: 50 µg per ear, topical; cited from earlier work
[4] = tested on: spontaneous synchronous Ca^2+ oscillations; parameters: method as in PMID 32237750; settings: cited from earlier work
[5] = tested on: indoleamine 2,3-dioxygenase 1 (IDO1); parameters: method as in doi:10.1039/C9QO00775J; settings: cited from earlier work
C. albicans = tested on: C. albicans; parameters: method as in PMID 22377027; settings: against C. albicans; cited from earlier work
[6] = tested on: iNOS and COX-2 proteins and mRNA expressions in RAW 264.7 macrophages; parameters: method as in not given; settings: ref not given; cited from earlier work
[7] = tested on: NO production in lipopolysaccharide activated RAW264.7 cells; parameters: method as in PMID 29197643; settings: LPS-activated RAW264.7 cells, in vitro; read-out: IC50, inhibition of NO production; cited from earlier work
[8] = Mus musculus, RAW264.7, 24 h, RAW 264.7 cells, LPS 1 µg/mL, 24 h, Griess assay, mean ± SD, n = 3
[9] = RAW 264.7 cells activated with LPS
[10] = RAW 264.7 cells, LPS 1 µg/mL, 24 h, Griess assay, mean ± SD, n = 3

Compound | SI, selectivity index, calculated by CC50/IC50 ([1]; RAW 264.7 cells) | IC50 [1, 8] | CC50 at 24 h [2, 9] | further results
COc1cc(O)c2c(c1)C1(OC2=O)C(C)=CC(=O)C1O (racemic) [Compound 10, ±talaroflavone] | 1.1 | 23.9 ± 3.3 µM | 27.2 ± 1.6 µM | –
CC(O)C(C)OC(=O)CC1OC(=O)c2c(O)cccc21 (centres unmarked) [Compound 1, alternabenzofuran A] | – | > 50 µM | > 100 µM | –
C[C@H](O)[C@@H](C)OC(=O)C[C@@H]1OC(=O)c2c(O)cccc21 [Compound 2, alternabenzofuran B] | – | 18.7 ± 2.35 µM | > 100 µM | Cytotoxicity (cell proliferation/viability, MTT) (RAW 264.7 cells): did not show any significant cytotoxicity
CC1=CC(=O)C2(C)CCCC(C)(CO)C23CC13 (centres unmarked) [Compound 3, alternaterpenoid A] | 10.4 | – | 24.9 ± 1.2 µM | –
CC1(C)CCCC2(C)C(=O)C=C(CO)C3CC312 (centres unmarked) [Compound 4, alternaterpenoid B] | – | ~50 µM | > 100 µM | –
COC(=O)C[C@@H]1OC(=O)c2c(O)cccc21 [Compound 5, isobenzofuranone A] | – | 41.1 ± 4.78 µM | > 100 µM | –
COc1cc(O)c2c(c1)C1=C(O)C(=O)C[C@@]1(C)OC2=O [Compound 7, (R)-1,6-dihydroxy-8-methoxy-3a-methyl-3,3a-dihydrocyclopenta[c]isochromene-2,5-dione] | 4.0 | < 10 µM | 20.6 ± 2.3 µM | IC50 [1, 10]: 5.2 ± 1.96 µM
COc1cc(O)c2c(=O)oc3c(c2c1)[C@@H](C)CC3=O [Compound 8, dihydroaltenuenes A] | – | > 50 µM | > 100 µM | –
COc1cc(O)c2c(=O)oc3c(c2c1)[C@@H](C)C[C@@H]3O [Compound 9, phialophriol] | – | – | > 100 µM | Cytotoxicity (cell proliferation/viability, MTT) (RAW 264.7 cells): did not show any significant cytotoxicity
COc1cc(O)c2c(=O)oc3cc(O)cc(C)c3c2c1 [Compound 11, alternariol-9-O-methyl ether] | – | – | – | IC50 ([1]; Mus musculus, RAW264.7, 24 h): 39 ± 1.92 µM; Cytotoxicity (cell proliferation/viability, MTT) (RAW 264.7 cells): did not show any significant cytotoxicity; CC50 at 24 h [2]: > 100 µM
Cc1cc(O)cc2oc(=O)c3c(O)cc(O)cc3c12 [Compound 12, alternariol] | 3.0 | – | – | IC50 ([1]; Mus musculus, RAW264.7, 24 h): 16.6 ± 1.6 µM; CC50 at 24 h [2]: 50.4 ± 2.1 µM
COc1cc(O)c2c(=O)oc3cc(O)c(C)cc3c2c1 [Compound 13, 2-methyl-9-methoxy alternariol] | 2.0 | – | – | IC50 ([1]; Mus musculus, RAW264.7, 24 h): 24.5 ± 4.51 µM; CC50 at 24 h [2]: 48.2 ± 2.6 µM
COc1cc(O)c2c(=O)oc3c(O)c(O)cc(C)c3c2c1 [Compound 14, 3’-hydroxyalternariol 5-O-methyl ether] | – | < 10 µM | – | IC50 [1, 10]: 5.9 ± 0.48 µM; Cytotoxicity (cell proliferation/viability, MTT) (RAW 264.7 cells): did not show any significant cytotoxicity; CC50 [2]: > 100 µM
COc1cc(O)c2c(=O)oc3cc(CO)cc(O)c3c2c1 [Compound 15, alternariol-1’-hydroxy-9-methyl ether] | 1.9 | – | – | IC50 ([1]; Mus musculus, RAW264.7, 24 h): 26.3 ± 3.99 µM; CC50 at 24 h [2]: 48.7 ± 1.8 µM
COc1cc(O)c2c(c1)C1=CC(=O)C(O)=CC1(C)OC2=O (centres unmarked) [Compound 16, dehydroaltenusin] | – | 1.3 to 41.1 µM | – | –
COc1cc(O)c2c(c1)-c1cc(O)c(O)cc1COC2=O [Compound 17, alteryulactone] | – | – | – | IC50 ([1]; Mus musculus, RAW264.7, 24 h): 16.2 ± 2.62 µM; Cytotoxicity (cell proliferation/viability, MTT) (RAW 264.7 cells): did not show any significant cytotoxicity; CC50 at 24 h [2]: > 100 µM
COC(=O)C1Cc2cccc(O)c2C(=O)O1 (centres unmarked) [Compound 18, tenuissimasatin] | 1.2 | 24.5 ± 1.06 µM | 28.3 ± 2.5 µM | –
COc1cc(O)c(C(=O)O)c(-c2cc(O)c(O)cc2C)c1 [Compound 20, altenusin] | – | – | – | IC50 ([1]; Mus musculus, RAW264.7, 24 h): 25.4 ± 3.03 µM; CC50 at 24 h [2]: > 100 µM
Cc1cc(=O)c2c(C)cc(O)cc2o1 [Compound 21, 2,5-dimethyl-7-hydroxychromone] | 1.2 | 14.9 ± 1.92 µM | 17.3 ± 2.2 µM | –
C[C@H]1CC(=O)OC[C@H]1O [Compound 22, walterolactone C] | 3.1 | 14.9 ± 1.92 µM | 46.4 ± 1.7 µM | –
CCC(C)[C@]1(O)NC(=O)[C@@H](C)n2c1nc1c(c2=O)C=C(OC)C=CO1 (some centres unmarked) [Oxepinamide A] | – | – | – | Inhibition rate, ear edema [3]: 82%
C=C1CC[C@H]2C(C)(C)[C@@H](O)CC[C@]2(C)[C@H]1CC(=O)[C@]1(O)C=C(CSC[C@H](O)C(=O)OC)C(=O)C1 [alternarin A] | – | – | – | Inhibition of spontaneous synchronous Ca2+ oscillations [4]: effective inhibition
COC1=CC(=O)c2c(O)c3c(c4c2[C@]12CC(=O)C[C@H]2[C@@]1(C[C@H](O)[C@H](O)CO1)O4)C[C@](C)(O)[C@H](O)C3 [anthrininone A] | – | – | – | Inhibition activity against IDO1 [5]: significant inhibition activity
COc1cc([C@H](Cc2ccccc2)NC(C)=O)oc(=O)c1 [pyrophen] | – | – | – | Anti-fungal activity (C. albicans): displayed anti-fungal activity
CC1=C[C@@H](O)[C@H]2C[C@@H](C)C[C@@H](C)[C@@H]2[C@H]1/C=C/C=C/C(=O)O [tanzawaic acid Q] | – | – | – | Effect on LPS-induced iNOS and COX-2 proteins and mRNA expressions [6]: inhibited
Amestolkolides B | – | – | – | IC50 [7]: 1.6 ± 0.1 µM
